Assay: Human HepG2 cell viability assay in 384 well format
Assay type: toxicity, cell-based
Parameters: dose 125 nL, time 70.5 hour; cytotoxicity at 70.5 h: concentration not given beside the values
Conditions: HepG2 cells, read-out: Inhibition

Row | Compound | cytotoxicity at 70.5 h [%]
1 | Cc1nc(C)n(CC2CCCN(Cc3nnc(-c4ccco4)o3)C2)n1 (configuration not stated) | -2.38
2 | NC(=O)CCN1CCC(C(=O)c2cc(F)ccc2F)CC1 | 15
3 | CC1CCN(CCNC(=O)c2ccccc2N2CCOCC2)CC1 | -7.45
4 | O=C(NCCc1ccccn1)NC1CCN(c2ncccn2)CC1 | -8
5 | COc1ccc(CN(C)C(=O)CCC(=O)c2cccs2)c(OC)c1OC | -3.38
6 | COC(=O)C(C)(C)NC(=O)C1CC(=O)N(C2CCCC2)C1 (configuration not stated) | -9.13
7 | COc1ccc(C(=O)Nc2cnn(CC(=O)NC3CCCC3)c2)c(O)c1 | -1.19
8 | Cc1cc(C)nc(N2CCN(C(=O)c3cc(Cl)c[nH]3)CC2)n1 | -9.1
9 | Cc1ccccc1C(=O)Nc1cnn(CC(=O)NC2CCCC2)c1 | -3.04
10 | Cc1cc(N2CCN(C(=O)c3cc(Cl)c[nH]3)CC2)nc(N)n1 | -6.18
11 | Cc1nn(C(C)C)c(C)c1NC(=O)c1ccncc1 | -5.05
12 | CCN(CC)c1ccc(NS(=O)(=O)c2cncc(F)c2)cn1 | -0.536
13 | CCCNC(=O)CNc1cc(C(=O)N2CCSCC2)ccc1C | -6
14 | CCSc1ccc(C(=O)Nc2c(C)nn(C(C)C)c2C)cn1 | 14.1
15 | Cc1ccc(C(=O)N2CCSCC2)cc1NC(=O)NCCO | -4.73
16 | COCCN(C)C(=O)c1ccc(OC)cc1O | -2.43
17 | CS(=O)(=O)c1ccc(OCCNCc2cccc(F)c2)cc1 | -2.08
18 | NC(=O)C1CN(C(=O)Nc2cc(Cl)cc(Cl)c2)CCO1 (configuration not stated) | -3.67
19 | Cc1ccc(CNCCOc2ccc(S(C)(=O)=O)cc2)cc1 | 11
20 | N#CCSCCCN1CCCN(C(=O)c2ccccc2)CC1 | -8.59
21 | CN1CC(C(=O)NC(C)(C)C)CC1=O (configuration not stated) | -9.06
22 | COC(=O)C(C)(C)NC(=O)C1CC(=O)N(C)C1 (configuration not stated) | -7.02

Row | Compound | cytotoxicity at 70.5 h [%]
23 | O=C(CN1CCCCCCC1=O)NCc1ccccn1 | -1.3
24 | Cc1nc(C)c(C(=O)N2CCC(Nc3cccnc3)CC2)s1 | -8.38
25 | CN(Cc1nnc(C2CC2)n1C)C1CCN(CCc2cccs2)C1 (configuration not stated) | -6.98
26 | CN(CCN1CCOCC1)C(=O)CCc1cccc(Cl)c1 | 20.6
27 | CSc1ccc(C(CN)N2CCc3sccc3C2)cc1 (configuration not stated) | 24.3
28 | CN(Cc1ccc(Cl)c(Cl)c1)C(=O)CNC(N)=O | 0.00328
29 | Cc1cc(C(=O)N2CC[C@H]3C[C@H](c4ccncn4)O[C@@H]3C2)no1 | 12.7
30 | CCOCC1CN(Cc2cnn(C)c2)Cc2cnn(C)c21 (configuration not stated) | -9.88
31 | O=C(C1CCOCC1)N1CC[C@@H](N2CCOCC2)[C@@H]1Cc1ccccc1 | 5.57
32 | O=C(c1cscn1)N1CC[C@H]2C[C@@H](c3ccncn3)O[C@@H]2C1 | 7.77
33 | O=C(c1ccnnc1)N1CC[C@H]2C[C@H](c3ccncn3)O[C@@H]2C1 | 5.3
34 | CC(=O)N1CCCC2(CCN(C(=O)c3ccc(Cl)c(C(F)(F)F)c3)C2)C1 (configuration not stated) | -10.6
35 | COCc1cnc2n1CCN(C(=O)c1ocnc1C)C2C (configuration not stated) | 10.1
36 | Cn1cc(CN2CCOCC3(CCN(C4CCOCC4)C3)C2)cn1 (configuration not stated) | 6.49
37 | O=C(c1ccncc1)N1C[C@@H](OCc2cccnc2)[C@H]2OCCC[C@H]21 | -10.2
38 | COCCCNC(=O)c1ccn(-c2ccc3ccccn23)n1 | -12.6
39 | Cc1nc(CN2CCO[C@@H]3CNCC[C@@H]3C2)cs1 | -5.71
40 | O=C(NCc1ccncc1)C1=NOC2(CCCNC2)C1 (configuration not stated) | 14.2
41 | Cc1cccc(CN2CCn3c(COc4ncccn4)nnc3C2)n1 | 4.18
42 | Cc1ccc(S(=O)(=O)NCC2COCc3c(C)nnn3C2)cc1F (configuration not stated) | 7.81
43 | Cc1ccc(C(=O)N2CCn3c(COCC4CC4)cnc3C2C)s1 (configuration not stated) | -4.86
44 | Cc1occc1C(=O)N1CCn2c(COCC3CC3)cnc2C1C (configuration not stated) | -9.85

Row | Compound | cytotoxicity at 70.5 h [%]
45 | CC1c2ncc(COCC3CC3)n2CCN1C(=O)c1ccn(C)n1 (configuration not stated) | -9.47
46 | CC1c2ncc(COCC3CC3)n2CCN1C(=O)c1ccnn1C (configuration not stated) | -10.2
47 | Cc1cc(C(=O)N2CCn3c(COCC4CCCC4)cnc3C2C)on1 (configuration not stated) | -15.4
48 | CN(C)C(=O)CNC(=O)c1ccn(-c2ccc3ccccn23)n1 | -8.61
49 | Cc1cccc(N2CC3(CCN(C(=O)NC(C)C)C3)CC2=O)c1 (configuration not stated) | -9.16
50 | N#Cc1cccc(N2CC3(CCN(C(=O)NC4CC4)C3)CC2=O)c1 (configuration not stated) | -4.14
51 | CC(C)c1nccc([C@@H]2C[C@@H]3CCN(Cc4ccoc4)C[C@H]3O2)n1 | -4.41
52 | O=C(NCC1CC1)C1=NOC2(CCN(S(=O)(=O)Cc3ccccc3)C2)C1 (configuration not stated) | -5.14
53 | CNC(=O)[C@H]1C[C@@H]2CN(C(=O)NCCc3ccccc3)C[C@H]1O2 | -12
54 | CN(C)CCO[C@H]1CN(C(=O)c2ccc(C#N)cc2)[C@@H]2COC[C@H]12 | -11
55 | O=C(NCc1ccccc1)[C@H]1C[C@@H]2CN(C(=O)NC3CCCC3)C[C@H]1O2 | 16.8
56 | N#Cc1cccc(N2CC3(CCN(C(=O)C4CC=CC4)C3)CC2=O)c1 (configuration not stated) | -9.81
57 | Cc1ccc(S(=O)(=O)N2CCC3(CC(C(=O)NC4CCC4)=NO3)C2)cc1 (configuration not stated) | 18.4
58 | CC(C)CNC(=O)N1C[C@H]2C[C@H](C(=O)NCc3ccccc3)[C@@H](C1)O2 | 13.9
59 | Cc1noc(C)c1C(=O)N1C[C@@H]2CN(Cc3cccnc3)CCO[C@@H]2C1 | -7.03
60 | Cc1nc([C@@H]2C[C@@H]3CCN(C(=O)Cc4cccc(F)c4)C[C@H]3O2)no1 | -8
61 | O=C(c1cnccn1)N1CCc2onc(Cn3cccn3)c2C1 | -6.72
62 | O=C1NCC2(CCCN(C(=O)c3c[nH]nc3C3CCCCC3)C2)O1 (configuration not stated) | -10.2
63 | CCN1CC2(CCC1=O)CCN(C(=O)c1ccc(C)cc1O)CC2 | -14.7
64 | CN(Cc1cccc(-n2cccn2)c1)c1cc(N2CCCC2)nc(N)n1 | -16.8
65 | COCCCC1(C(=O)O)CCCN(Cc2ccccc2C)C1 (configuration not stated) | -4.89
66 | Cn1cc2ncn(C3CCN(c4ccccc4F)CC3)c(=O)c2n1 | -11

Row | Compound | cytotoxicity at 70.5 h [%]
67 | CCC1(CO)CCCN(C(=O)c2ccc(N3CCN(C)CC3)cc2)C1 (configuration not stated) | -4.46
68 | O=C(NCc1ccc(CO)cc1)C1CCOc2ccccc2C1 (configuration not stated) | 4.54
69 | COCc1cn(CC2CCN(Cc3nc(C)c[nH]3)CC2)nn1 | -8.76
70 | Cc1ccsc1C(=O)N1C[C@@H](C(=O)O)[C@H](C(C)C)C1 | 0.968
71 | CC(C)C(C(=O)N1CCC2(CC1)CN(C)C(=O)O2)c1ccccc1 (configuration not stated) | -8.69
72 | CNc1nc(C)cc(N2CCC(C(=O)O)(n3ccc(C(C)C)n3)CC2)n1 | -4.47
73 | CN1CCN(Cc2nnc(C3CCN(S(C)(=O)=O)CC3)n2C)CC1 | -20.6
74 | CC(C)Cc1ncc2c(n1)CN(c1cc(NC3CC3)nc(N)n1)C2 | 0.238
75 | Cc1cccc(C)c1OC1CN(Cc2cnc(N3CCCC3)nc2)C1 | 27.2
76 | CO[C@H]1COC[C@@H]1NC(=O)C1(Oc2ccc(Cl)cc2)CCNCC1 | -6.36
77 | COCCN1CCC(C(=O)N(C)Cc2cccc(Cl)c2)C1 (configuration not stated) | 32
78 | CCOCC1CN(Cc2cnn(C)c2)Cc2nn(CC3CC3)cc21 (configuration not stated) | -10.4
79 | Cn1cc(N2CC3(COCCN(Cc4ccccn4)C3)OCC2=O)cn1 (configuration not stated) | -11.1
80 | CCS(=O)(=O)N1C[C@@H](OCc2ccccn2)[C@@H]2OCCC[C@@H]21 | -9.16
81 | Cc1ccc(C(=O)N2CCn3c(COCC4CC4)cnc3C2C)nc1 (configuration not stated) | -8.57
82 | O=C(C1CC=CC1)N1C[C@@H](OCc2cccnc2)[C@H]2OCCC[C@H]21 | 11.2
83 | O=C(N1CCCC1)N1C[C@@H](OCc2cccnc2)[C@H]2OCCC[C@H]21 | 12.7
84 | Cc1nc(CN2CCO[C@@H]3CN(C(=O)CC4CC4)C[C@@H]3C2)cs1 | -1.45
85 | CN(C)CCNC(=O)c1ccn(-c2ccc3ccccn23)n1 | -6.93
86 | O=C(NCCN1CCOCC1)c1ccn(-c2ccc3ccccn23)n1 | -1.69
87 | COCCN1CCc2c(cnc(-c3ccoc3)c2C(=O)O)C1 | -12.1
88 | Cc1ccc(C(=O)N2CCC3(CC2)COC(COc2cccnc2)C3)o1 (configuration not stated) | -7.65

Row | Compound | cytotoxicity at 70.5 h [%]
89 | c1cc(CN2CCc3c(nnn3CC3CC3)C2COCC2CC2)co1 (configuration not stated) | -14
90 | C1CC(CN2CCc3c(nnn3CC3CC3)C2COCC2CC2)C1 (configuration not stated) | -8.97
91 | O=C(c1ccco1)N1C[C@H]2CCCN(Cc3ccc(F)cc3)[C@H]2C1 | -9.54
92 | Cc1ccc(CN2CCC[C@@H]3CN(C(=O)c4ccco4)C[C@@H]32)s1 | -11
93 | Cn1cc(CN2CCCC23CCN(C(=O)c2cccs2)CC3)cn1 | -11.6
94 | Cc1ccc(CN2Cc3nnn(C)c3C(COCc3ccccc3)C2)o1 (configuration not stated) | -8.1
95 | Cc1ccc(CN2C[C@@H]3CCCO[C@@H]3[C@H](N(C)Cc3ccco3)C2)s1 | -11
96 | Cc1nc(CN2CCO[C@@H]3CN(Cc4ccccn4)CC[C@@H]3C2)cs1 | -6.11
97 | Cc1nc(CN2CCO[C@@H]3CN(Cc4ccsc4)C[C@@H]3C2)cs1 | 0.892
98 | COCC1c2nnn(CC3CC3)c2CCN1Cc1ccncc1 (configuration not stated) | -8.11
99 | O=C(c1cccnc1)N1CCC2(CC1)COC(COc1ccccn1)C2 (configuration not stated) | -11.7
100 | Cn1nnc2c1CCN(Cc1ccncc1)C2COCC1CC1 (configuration not stated) | -9.81
101 | Cc1ccc(CN2CCC3(CC2)NC(=O)CC3c2ccncc2)cc1C (configuration not stated) | -3.31
102 | O=C(c1ccco1)N1C[C@H]2CCCN(Cc3ccncc3)[C@H]2C1 | -3.44
103 | COCC1CC2(CCN(Cc3cccc(C#N)c3)CC2)CN1C(C)C (configuration not stated) | -4.89
104 | O=C1CO[C@@H]2CN(Cc3ccncc3)C[C@H]2N1Cc1ccncc1 | -7.94
105 | c1ccc(CN2CCc3nnc(COc4ccccn4)n3CC2)nc1 | 13.9
106 | CN(C)CCOCC1CN(Cc2cccs2)Cc2ccnn2C1 (configuration not stated) | -9.15
107 | CN(Cc1ccncc1)C1COC2(CCN(Cc3ccccn3)CC2)C1 (configuration not stated) | -7

Source: ChEMBL document CHEMBL3507680, “University of Dundee, Gates Library screen for HepG2 cell viability”
